The target of the experiment is T1, mGlyT-1b (Mus musculus, UniProt P28571).
T1 construct: expressed in transfected cells; host or cells: Flp-in-CHO (Invitrogen Cat no R758-07), stably transfected
T1 sequence (P28571 1-651 isoform P28571-2): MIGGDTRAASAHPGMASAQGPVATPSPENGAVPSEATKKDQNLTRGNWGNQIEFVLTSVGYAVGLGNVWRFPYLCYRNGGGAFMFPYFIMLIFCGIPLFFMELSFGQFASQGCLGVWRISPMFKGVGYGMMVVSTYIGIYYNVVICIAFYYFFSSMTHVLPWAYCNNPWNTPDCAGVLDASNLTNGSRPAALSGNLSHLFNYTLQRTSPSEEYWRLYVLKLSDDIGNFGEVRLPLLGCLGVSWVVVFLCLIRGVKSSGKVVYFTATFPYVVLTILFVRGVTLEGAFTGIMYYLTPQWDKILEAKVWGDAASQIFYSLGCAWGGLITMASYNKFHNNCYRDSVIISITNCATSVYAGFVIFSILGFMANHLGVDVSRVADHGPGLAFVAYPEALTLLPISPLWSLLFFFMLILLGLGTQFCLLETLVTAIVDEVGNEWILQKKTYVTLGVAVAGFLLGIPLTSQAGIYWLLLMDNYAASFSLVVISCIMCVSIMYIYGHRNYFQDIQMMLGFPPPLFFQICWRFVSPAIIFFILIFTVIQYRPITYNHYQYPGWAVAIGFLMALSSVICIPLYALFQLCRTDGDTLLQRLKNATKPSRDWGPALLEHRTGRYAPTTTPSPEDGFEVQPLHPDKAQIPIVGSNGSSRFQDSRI
In words: Glycine Uptake Inhibition Assay (mGlyT-1b). The class given is cell-based. Conditions: [3H]-glycine uptake in Flp-in-CHO cells transfected with mGlyT-1b cDNA; read-out: IC50 (μM) at GlyT-1. As to the method: DMEM complete medium: Nutrient mixture F-12 (Gibco Life-technologies), fetal bovine serum (FBS) 5%, (Gibco life technologies), Penicillin/Streptomycin 1% (Gibco life technologies), Hygromycin 0.6 mg/ml (Gibco life technologies), Glutamine 1 mM Gibco life technologies)
Uptake buffer (UB): 150 mM NaCl, 10 mM Hepes-Tris, pH 7.4, 1 mM CaCl2, 2.5 mM KCl, 2.5 mM MgSO4, 10 mM (+) D-glucose.
Flp-in™-CHO (Invitrogen Cat no R758-07) cells stably transfected with mGlyT1b cDNA.
Glycine Uptake Inhibition Assay (mGlyT-1b)
On day 1 mammalian cells, (Flp-in™-CHO), transfected with mGlyT-1b cDNA, were plated at the density of 40,000 cells/well in complete F-12 medium, without hygromycin in 96-well culture plates. On day 2, the medium was aspirated and the cells were washed twice with uptake buffer (UB). The cells were then incubated for 20 min at 22° C. with either (i) no potential competitor, (ii) 10 mM non-radioactive glycine, (iii) a concentration of a potential inhibitor. A range of concentrations of the potential inhibitor was used to generate data for calculating the concentration of inhibitor resulting in 50% of the effect (e.g. IC50, the concentration of the competitor inhibiting glycine uptake of 50%). A solution was then immediately added containing [^3H]-glycine 60 nM (11-16 Ci/mmol) and 25 μM non-radioactive glycine. The plates were incubated with gentle shaking and the reaction was stopped by aspiration of the mixture and washing (three times) with ice-cold UB. The cells were lysed with scintillation liquid, shaken 3 hours and the radioactivity in the cells was counted using a scintillation counter.
By IC50 is commonly meant the concentration at which inhibition is half-maximal. Regarding `CC(C)CSc1ccc(S(C)(=O)=O)cc1C(=O)N1CCN(c2ccc(S(C)(=O)=O)cc2F)CC1` [Example 18, [4-(2-Fluoro-4-methanesulfonyl-phenyl)-piperazin-1-yl]-(2-isobutylsulfanyl-5-methanesulfonyl-phenyl)-methanone], the concentration for half-maximal inhibition (IC50) is 0.1 µM.

For `CNS(=O)(=O)c1ccc(SC(C)C)c(C(=O)N2CCN(c3ccc(C(F)(F)F)cc3)CC2)c1` [Example 25, 4-Isopropylsulfanyl-N-methyl-3-[4-(4-trifluoromethyl-phenyl)-piperazine-1-carbonyl]-benzenesulfonamide], the IC50 was 0.006 µM.

For `CC(C)Sc1ccc(S(C)(=O)=O)cc1C(=O)N1CCN(c2ccc(S(C)(=O)=O)cc2F)CC1` [Example 6, [4-(2-Fluoro-4-methanesulfonyl-phenyl)-piperazin-1-yl]-(2-isopropylsulfanyl-5-methanesulfonyl-phenyl)-methanone], the IC50 turned out to be 0.04 µM.

For `CC(C)Sc1ccc(S(C)(=O)=O)cc1C(=O)N1CCN(c2ccc([N+](=O)[O-])cc2Cl)CC1` [Example 23, [4-(2-Chloro-4-nitro-phenyl)-piperazin-1-yl]-(2-isopropylsulfanyl-5-methanesulfonyl-phenyl)-methanone], the IC50 was 0.018 µM.

As for `CC(=O)c1ccc(N2CCN(C(=O)c3cc(S(C)(=O)=O)ccc3SC(C)C)CC2)c(F)c1` [Example 22, 1-{3-Fluoro-4-[4-(2-isopropylsulfanyl-5-methanesulfonyl-benzoyl)-piperazin-1-yl]-phenyl}-ethanone], the IC50 came out at 0.015 µM.

Turning to `CCSc1ccc(S(C)(=O)=O)cc1C(=O)N1CCN(c2ncc(C(F)(F)F)cc2F)CC1` [Example 7, (2-Ethylsulfanyl-5-methanesulfonyl-phenyl)-[4-(3-fluoro-5-trifluoromethyl-pyridin-2-yl)-piperazin-1-yl]-methanone], the IC50 came to 0.08 µM.

Regarding `CS(=O)(=O)c1ccc(N2CCN(C(=O)c3cc(S(C)(=O)=O)ccc3SCC(F)(F)F)CC2)c(F)c1` [Example 14, [4-(2-Fluoro-4-methanesulfonyl-phenyl)-piperazin-1-yl]-[5-methanesulfonyl-2-(2,2,2-trifluoro-ethylsulfanyl)-phenyl]-methanone], the IC50 worked out at 0.1 µM.

Turning to `CC(C)Sc1ccc([N+](=O)[O-])cc1C(=O)N1CCN(c2ccc(C(F)(F)F)cc2)CC1` [Example 27, (2-Isopropylsulfanyl-5-nitro-phenyl)-[4-(4-trifluoromethyl-phenyl)-piperazin-1-yl]-methanone], the IC50 came out at 0.007 µM.

As to `CC(C)Sc1ccc(S(C)(=O)=O)cc1C(=O)N1CCN(c2ncc(C(F)(F)F)cc2F)CC1` [Example 3, [4-(3-Fluoro-5-trifluoromethyl-pyridin-2-yl)-piperazin-1-yl]-(2-isopropylsulfanyl-5-methanesulfonyl-phenyl)-methanone], the IC50 was 0.03 µM.

With `CS(=O)(=O)c1ccc(SCC(F)(F)F)c(C(=O)N2CCN(c3ncc(C(F)(F)F)cc3F)CC2)c1` [Example 11, [4-(3-Fluoro-5-trifluoromethyl-pyridin-2-yl)-piperazin-1-yl]-[5-methanesulfonyl-2-(2,2,2-trifluoro-ethylsulfanyl)-phenyl]-methanone], the IC50 was 0.07 µM.

The values are drawn from US20060149062A1, “Sulfanyl substituted phenyl methanones” (priority 2005, published 2006).
